From patent publication US20220185767A1, “NOVEL TERNARY MOLECULAR COMPLEX OF TAMIBAROTENE FOR CANCER STEM CELLS TREATMENT” (TRANSGENEX NANOBIOTECH, INC., priority 2019, published 2022)
Read-outs that look alike come from different tables or passages of the source. Each block holds one compound with its values, some of them ahead of it.

Legend:
SK-Mel-5 = assay: Monolayer Cell Culture Assay, IC50; format: cell-based; settings: SK-Mel-5, Skin
Text: (§1) All IC50 studies' methodology and materials are described in full details in international publication number WO 2019/160806 dated Aug. 22, 2019, but with substituting the binary molecular complex with the ternary molecular complex of the present invention.

A549 = assay: Monolayer Cell Culture Assay, IC50; format: cell-based; settings: A549, Lung
Text: as §1

SK-ES-1 = assay: Monolayer Cell Culture Assay, IC50; format: cell-based; settings: SK-ES-1, Sarcoma
Text: as §1

PC-3 = assay: Monolayer Cell Culture Assay, IC50; format: cell-based; settings: PC-3, Prostate
Text: as §1

CT26 = assay: Monolayer Cell Culture Assay, IC50; format: cell-based; settings: Mus musculus, CT26, Colon
Text: as §1

PANC-1 = assay: Monolayer Cell Culture Assay, IC50; format: cell-based; settings: PANC-1, Pancreas
Text: as §1

MC38 = assay: Monolayer Cell Culture Assay, IC50; format: cell-based; settings: Mus musculus, MC-38, MC38, Colon
Text: as §1

HT29 = assay: Monolayer Cell Culture Assay, IC50; format: cell-based; settings: Homo sapiens, HT-29, HT29, Colon
Text: as §1

HCT116 = assay: Monolayer Cell Culture Assay, IC50; format: cell-based; settings: Homo sapiens, HCT-116, HCT116, Colon
Text: as §1

U-2 OS = assay: Monolayer Cell Culture Assay, IC50; format: cell-based; settings: Sarcoma
Text: as §1

[1] = cited from earlier work
[2] = format: physicochemical
Procedure: 30.0 mg of tamibarotene, 11.4 mg of L-malic acid and 43.5 mg of telmisartan (1:1:1 molar ratio) were stirred as an open slurry in 1 mL of acetone in a glass vial. After 16-24 hours of stirring mixture was further dried at room temperature until, a completely dried mixture is obtained. The resulted material was stored in a screw cap vial and characterized by PXRD and IR. PXRD comparison of binary tamibarotene-L-malic acid complex (TN-513) with tamibarotene-L-malic acid-telmisartan (TN-513-T) also confirmed the successful synthesis of a ternary complex. Synthesis of ternary TN-513-T was scaled up to 150 mg of tamibarotene and stability was tested on accelerated conditions (75% humidity at 40° C.) for 1 and three months.

lung cancer cells = assay: Sphere assay; format: cell-based
Text: All sphere assay studies methodology and materials are described in full details in international publication number WO 2019/160806 dated Aug. 22, 2019, but with substituting the binary molecular complex with the ternary molecular complex of the present invention.

[3] = Homo sapiens, average of two tests, read-out: IC50 Test AVG Avg
[4] = Homo sapiens, read-out: IC50 Test (II) Avg
[5] = Homo sapiens, read-out: IC50 Test(I) Avg
[6] = average of two tests, read-out: IC50 Test AVG Avg

IC50 (SK-Mel-5; [3]): > 100 µM
IC50 (SK-Mel-5; [4]): > 100 µM
IC50 (SK-Mel-5; [5]): > 100 µM
IC50 (A549; [3]): 60.3 µM
IC50 (SK-ES-1; Homo sapiens, SK-ES1, average of two tests, read-out: IC50 Test AVG Avg): > 100 µM
IC50 (SK-ES-1; Homo sapiens, SK-ES1, read-out: IC50 Test (II) Avg): > 100 µM
IC50 (SK-ES-1; Homo sapiens, SK-ES1, read-out: IC50 Test(I) Avg): > 100 µM
IC50 (PC-3; [3]): > 100 µM
IC50 (PC-3; [4]): > 100 µM
IC50 (PC-3; [5]): > 100 µM
IC50 (CT26; [6]): 87.3 µM
IC50 (CT26; read-out: IC50 Test (I) Avg): 61.9 µM
IC50 (CT26; read-out: IC50 Test (II) Avg): 94.8 µM
IC50 (PANC-1; [3]): > 100 µM
IC50 (PANC-1; [4]): > 100 µM
IC50 (PANC-1; [5]): > 100 µM
IC50 (MC38; [6]): 101 µM
IC50 (MC38; read-out: IC50 Test (I) Avg): 65.7 µM
IC50 (MC38; read-out: IC50 Test (II) Avg): 137 µM
IC50 (HT29; [6]): 100 µM
IC50 (HT29; read-out: IC50 Test (I) Avg): 88.9 µM
IC50 (HT29; read-out: IC50 Test (II) Avg): 111 µM
IC50 (HCT116; [6]): 60.4 µM
IC50 (HCT116; read-out: IC50 Test (I) Avg): 49.6 µM
IC50 (HCT116; read-out: IC50 Test (II) Avg): 71.3 µM
IC50 (U-2 OS; Homo sapiens, U2OS, average of two tests, read-out: IC50 Test AVG Avg): > 100 µM
IC50 (U-2 OS; Homo sapiens, U2OS, read-out: IC50 Test (II) Avg): > 100 µM
IC50 (U-2 OS; Homo sapiens, U2OS, read-out: IC50 Test(I) Avg): > 100 µM
SMILES: CC1(C)CCC(C)(C)c2cc(NC(=O)c3ccc(C(=O)O)cc3)ccc21 [TAM, 4-[(5,5,8,8-tetramethyl-5,6,7,8-tetrahydronaphthalen-2-yl)carbamoyl]benzoic acid, reference compound]
solubility in organic solvents ([1]; DMF, methanol, ethanol, DMSO, and other organic solvents): soluble
solubility in acetonitrile, water, and various other buffer solutions ([1]; acetonitrile, water, buffer solutions pH3~7 (CN 101200435 B)): insoluble

IC50 (SK-Mel-5; [6]): 46.1 µM
IC50 (SK-Mel-5; read-out: IC50 Test (II) Avg): 42.6 µM
IC50 (SK-Mel-5; read-out: IC50 Test(I) Avg): 49.5 µM
IC50 (A549; [6]): 52.4 µM
IC50 (A549; read-out: IC50 Test (II) Avg): 62.2 µM
IC50 (A549; read-out: IC50 Test(I) Avg): 42.7 µM
IC50 (SK-ES-1; [6]): 31.4 µM
IC50 (SK-ES-1; read-out: IC50 Test (II) Avg): 33.6 µM
IC50 (SK-ES-1; read-out: IC50 Test(I) Avg): 29.2 µM
IC50 (PC-3; [6]): 106 µM
IC50 (PC-3; read-out: IC50 Test (II) Avg): 111 µM
IC50 (PC-3; read-out: IC50 Test(I) Avg): 102 µM
IC50 (PANC-1; [6]): 70.6 µM
IC50 (PANC-1; read-out: IC50 Test (II) Avg): 88 µM
IC50 (PANC-1; read-out: IC50 Test(I) Avg): 53.3 µM
IC50 (U-2 OS; [6]): 42.8 µM
IC50 (U-2 OS; read-out: IC50 Test (II) Avg): 45.8 µM
IC50 (U-2 OS; read-out: IC50 Test(I) Avg): 39.9 µM
SMILES: CC1(C)CCC(C)(C)c2cc(NC(=O)c3ccc(C(=O)O)cc3)ccc21.CCOc1nc2cccc(C(=O)O)c2n1Cc1ccc(-c2ccccc2-c2nn[nH]n2)cc1 [TN513:CS, Tamibarotene:L-malic acid:candesartan]

IC50 (SK-Mel-5; [6]): 116 µM
IC50 (SK-Mel-5; read-out: IC50 Test (II) Avg): 132 µM
IC50 (SK-Mel-5; read-out: IC50 Test(I) Avg): 99.9 µM
IC50 (A549; [6]): 110 µM
IC50 (A549; read-out: IC50 Test (II) Avg): 126 µM
IC50 (A549; read-out: IC50 Test(I) Avg): 93.8 µM
IC50 (SK-ES-1; [6]): 106 µM
IC50 (SK-ES-1; read-out: IC50 Test (II) Avg): 122 µM
IC50 (SK-ES-1; read-out: IC50 Test(I) Avg): 90 µM
IC50 (PC-3; [6]): 332 µM
IC50 (PC-3; read-out: IC50 Test (II) Avg): 343 µM
IC50 (PC-3; read-out: IC50 Test(I) Avg): 322 µM
IC50 (PANC-1; [6]): 126 µM
IC50 (PANC-1; read-out: IC50 Test (II) Avg): 149 µM
IC50 (PANC-1; read-out: IC50 Test(I) Avg): 104 µM
IC50 (U-2 OS; [6]): 64.8 µM
IC50 (U-2 OS; read-out: IC50 Test (II) Avg): 69.6 µM
IC50 (U-2 OS; read-out: IC50 Test(I) Avg): 59.9 µM
SMILES: CC1(C)CCC(C)(C)c2cc(NC(=O)c3ccc(C(=O)O)cc3)ccc21.CCCCc1nc(Cl)c(CO)n1Cc1ccc(-c2ccccc2-c2nn[nH]n2)cc1 [TN513:LS, Tamibarotene:L-malic acid:losartan]

IC50 (SK-Mel-5; [6]): 20.7 µM
IC50 (SK-Mel-5; read-out: IC50 Test (II) Avg): 26.1 µM
IC50 (SK-Mel-5; read-out: IC50 Test(I) Avg): 15.3 µM
IC50 (A549; [6]): 16 µM
IC50 (A549; read-out: IC50 Test (II) Avg): 19.9 µM
IC50 (A549; read-out: IC50 Test(I) Avg): 12 µM
IC50 (SK-ES-1; [6]): 17.9 µM
IC50 (SK-ES-1; read-out: IC50 Test (II) Avg): 18.4 µM
IC50 (SK-ES-1; read-out: IC50 Test(I) Avg): 17.4 µM
IC50 (PC-3; [6]): 71.2 µM
IC50 (PC-3; read-out: IC50 Test (II) Avg): 70.8 µM
IC50 (PC-3; read-out: IC50 Test(I) Avg): 71.7 µM
IC50 (PANC-1; [6]): 32.5 µM
IC50 (PANC-1; read-out: IC50 Test (II) Avg): 40.2 µM
IC50 (PANC-1; read-out: IC50 Test(I) Avg): 24.8 µM
IC50 (U-2 OS; [6]): 12.9 µM
IC50 (U-2 OS; read-out: IC50 Test (II) Avg): 14.6 µM
IC50 (U-2 OS; read-out: IC50 Test(I) Avg): 11.2 µM
stability on accelerated conditions (PXRD) [2]: no change in PXRD data
SMILES: CC1(C)CCC(C)(C)c2cc(NC(=O)c3ccc(C(=O)O)cc3)ccc21.CCCc1nc2c(C)cc(-c3nc4ccccc4n3C)cc2n1Cc1ccc(-c2ccccc2C(=O)O)cc1.O=C(O)C[C@H](O)C(=O)O [TN513:TS, Tamibarotene:L-malic acid:telmisartan]
preventing sphere aggregation (sphere formation efficacy) (lung cancer cells; FIG. 10): superior efficacy preventing sphere aggregation
total surface area of the cancer cell spheres (lung cancer cells; FIG. 11): dramatically reducing the total surface area
